pIC50: −log10 of the molar value. Calls of active or inactive are those of the source. The calls are words filed in the database; no cut-off is given here. Residues, ends and D or L forms follow the SMILES beside them. *: point of attachment. Octanoyl = CCCCCCCC(=O)*
Legend:
Type in all cases: functional, cell-based
[1] = system: KB; experiment: Cytotoxicity against human KB cell line by [3H] thymidine incorporation assay
[2] = system: LM; experiment: Induction of NGF secretion in LM cells at 50 uM after 24 hrs; conditions: Mus musculus
[3] = system: LM; experiment: Cytotoxicity against mouse LM cell line by [3H] thymidine incorporation assay
[4] = system: PC-12; experiment: Cytotoxicity against rat PC12 cell line by [3H] thymidine incorporation assay; conditions: PC-12, 24 h

| SMILES | pIC50 [1] | Activity [2] | pIC50 [3] | pIC50 [4] |
| --- | --- | --- | --- | --- |
| CCCCCCCCC[C@@H](O)CC(=O)N[C@@H](CC(N)=O)C(=O)N[C@@H](CCC(N)=O)C(=O)N[C@H](C=O)CC(C)C [FELLUTAMIDE B] | 6.46 | Active | 6.32 | 6.36 |
| CCCCCCCC(=O)N[C@@H](CC(N)=O)C(=O)N[C@@H](CCC(N)=O)C(=O)N[C@H](C=O)CC(C)C (Octanoyl-Asn-Gln-Leu-aldehyde) | 5.32 | Active | 5.48 | 5.78 |

— ChEMBL document CHEMBL1138927, “Neurotrophic peptide aldehydes: solid phase synthesis of fellutamide B and a simplified analog” (Bioorg Med Chem Lett, 2006)
